Publication PMC8698302, “An Antibacterial Peptide with High Resistance to Trypsin Obtained by Substituting D-Amino Acids for Trypsin Cleavage Sites” (Antibiotics, 2021)
Converted amounts (≈) assume the structure as drawn. Where two headings read alike, the source gives them in different places.

What was measured:
Experiment in all cases: Antimicrobial susceptibility test of clinical isolated strains
Format in all cases: cell-based
Escherichia coli QY = conditions: for Antimicrobial susceptibility test result (category): according to CLSI 2015 guidelines
Protocol: (§1) Table S1. Antimicrobial susceptibility test of clinical isolated strains used in this study (MIC, μg/mL).
(§2) 1Antimicrobial susceptibility test results were determined according to CLSI 2015 guidelines, where "R" stands for drug resistance,
(§3) "I" stands for intermediate, "S" stands for susceptible. […]

Shigella flexneri QY1 = conditions: for Antimicrobial susceptibility test result (category): according to CLSI 2015 guidelines
Protocol: as §1, §2, §3

Escherichia coli SN5 = conditions: for Antimicrobial susceptibility test result (category): according to CLSI 2015 guidelines
Protocol: as §1, §2, §3

Escherichia coli w123 = conditions: for Antimicrobial susceptibility test result (category): according to CLSI 2015 guidelines
Protocol: as §1, §2, §3

Escherichia coli S1N1 = conditions: for Antimicrobial susceptibility test result (category): according to CLSI 2015 guidelines
Protocol: as §1, §2, §3

Escherichia coli w122 = conditions: for Antimicrobial susceptibility test result (category): according to CLSI 2015 guidelines
Protocol: as §1, §2, §3

Escherichia coli w136 = conditions: for Antimicrobial susceptibility test result (category): according to CLSI 2015 guidelines
Source text: as §1, §3

Escherichia coli w124 = conditions: for Antimicrobial susceptibility test result (category): according to CLSI 2015 guidelines
Source text: as §1, §3

[1] = tested on: Methicillin-resistant Staphylococcus aureus HP; conditions: for MIC: Staphylococcus aureus, antibiotic susceptibility, CLSI 2015 guidelines; for Antimicrobial susceptibility test result (category): according to CLSI 2015 guidelines
Protocol: as §1, §2, §3

[2] = Escherichia coli, antibiotic susceptibility, CLSI 2015 guidelines, read-out: MIC
[3] = Escherichia coli, SN5, antibiotic susceptibility, CLSI 2015 guidelines, read-out: MIC
[4] = Escherichia coli, W123, antibiotic susceptibility, CLSI 2015 guidelines, read-out: MIC
[5] = Escherichia coli, S1N1, antibiotic susceptibility, CLSI 2015 guidelines, read-out: MIC
[6] = Escherichia coli, W122, antibiotic susceptibility, CLSI 2015 guidelines, read-out: MIC
[7] = Escherichia coli, W136, antibiotic susceptibility, CLSI 2015 guidelines, read-out: MIC
[8] = Escherichia coli, W124, antibiotic susceptibility, CLSI 2015 guidelines, read-out: MIC
[9] = antibiotic susceptibility, CLSI 2015 guidelines

Row | Compound | Antimicrobial susceptibility test result (category) (Escherichia coli QY) | MIC (Shigella flexneri QY1; Shigella flexneri, QY1) | Antimicrobial susceptibility test result (category) (Shigella flexneri QY1) | Antimicrobial susceptibility test result (category) (Escherichia coli SN5) | Antimicrobial susceptibility test result (category) (Escherichia coli w123) | Antimicrobial susceptibility test result (category) (Escherichia coli S1N1) | Antimicrobial susceptibility test result (category) (Escherichia coli w122) | Antimicrobial susceptibility test result (category) (Escherichia coli w136) | Antimicrobial susceptibility test result (category) (Escherichia coli w124) | MIC (Escherichia coli QY; [2]) | MIC (Escherichia coli SN5; [3]) | MIC (Escherichia coli w123; [4]) | MIC (Escherichia coli S1N1; [5]) | MIC [1] | Antimicrobial susceptibility test result (category) [1] | MIC (Escherichia coli w122; [6]) | MIC (Escherichia coli w136; [7]) | MIC (Escherichia coli w124; [8]) | other results
1 | Cc1noc(NS(=O)(=O)c2ccc(N)cc2)c1C [Sulfafurazole] | R | > 512 µg/mL | R | R | R | R | R | R | R |  |  |  |  |  |  |  |  |  | MIC (Escherichia coli QY; Escherichia coli): 512 µg/mL (≈ 1920 µM); MIC (Escherichia coli SN5; Escherichia coli, SN5): > 512 µg/mL; MIC (Escherichia coli w123; Escherichia coli, W123): 512 µg/mL (≈ 1920 µM); MIC (Escherichia coli S1N1; Escherichia coli, S1N1): 512 µg/mL (≈ 1920 µM); MIC (Escherichia coli w122; Escherichia coli, W122): 512 µg/mL (≈ 1920 µM); MIC (Escherichia coli w136; Escherichia coli, W136): 512 µg/mL (≈ 1920 µM); MIC (Escherichia coli w124; Escherichia coli, W124): 512 µg/mL (≈ 1920 µM)
2 | CC[C@H]1OC(=O)[C@H](C)[C@@H](O[C@H]2C[C@@](C)(OC)[C@@H](O)[C@H](C)O2)[C@H](C)[C@@H](O[C@@H]2O[C@H](C)C[C@H](N(C)C)[C@H]2O)[C@](C)(O)C[C@@H](C)CN(C)[C@H](C)[C@@H](O)[C@]1(C)O [Azithromycin] | S | 64 µg/mL (≈ 85.4 µM) | R | S | S | S | S | S | S | 8 µg/mL (≈ 10.7 µM) | 4 µg/mL (≈ 5.34 µM) | 4 µg/mL (≈ 5.34 µM) | 4 µg/mL (≈ 5.34 µM) | 1 µg/mL (≈ 1.34 µM) | S | 4 µg/mL (≈ 5.34 µM) | 2 µg/mL (≈ 2.67 µM) | 4 µg/mL (≈ 5.34 µM) | 
3 | COc1cccc(OC)c1C(=O)N[C@@H]1C(=O)N2[C@@H]1SC(C)(C)[C@@H]2C(=O)O [methicillin] |  | 32 µg/mL (≈ 84.1 µM) | R | R | R | R | R |  |  |  | 64 µg/mL (≈ 168 µM) | 128 µg/mL (≈ 336 µM) | 128 µg/mL (≈ 336 µM) | 128 µg/mL (≈ 336 µM) | R | 64 µg/mL (≈ 168 µM) |  |  | 
4 | CN(C)[C@@H]1C(O)=C(C(N)=O)C(=O)[C@@]2(O)C(O)=C3C(=O)c4c(O)cccc4[C@@](C)(O)[C@H]3C[C@@H]12 [Tetracycline] | R | 32 µg/mL (≈ 72 µM) | R | R | R | R | R | R | R |  | 64 µg/mL (≈ 144 µM) | 32 µg/mL (≈ 72 µM) | 32 µg/mL (≈ 72 µM) | 32 µg/mL (≈ 72 µM) | R | 32 µg/mL (≈ 72 µM) |  |  | 
5 | PolymixinB | S |  | S | S | S | S | S | R | S |  |  |  |  |  |  |  |  |  | MIC (Escherichia coli QY; [9]): 1 µg/mL; MIC (Shigella flexneri QY1; [9]): 0.5 µg/mL; MIC (Escherichia coli SN5; [9]): 0.5 µg/mL; MIC (Escherichia coli w123; [9]): 0.5 µg/mL; MIC (Escherichia coli S1N1; [9]): 0.5 µg/mL; MIC (Escherichia coli w122; [9]): 0.5 µg/mL; MIC (Escherichia coli w136; [9]): 8 µg/mL; MIC (Escherichia coli w124; [9]): 0.5 µg/mL
6 | CO/N=C(\C(=O)N[C@@H]1C(=O)N2C(C(=O)O)=C(CSc3nc(=O)c(=O)[nH]n3C)CS[C@H]12)c1csc(N)n1 [Ceftriaxone] | R | 4 µg/mL (≈ 7.21 µM) | R | R | R | R | R | S | R | 64 µg/mL (≈ 115 µM) | 16 µg/mL (≈ 28.9 µM) | 32 µg/mL (≈ 57.7 µM) | 16 µg/mL (≈ 28.9 µM) |  |  | 32 µg/mL (≈ 57.7 µM) | 0.06 µg/mL (≈ 0.108 µM) | 4 µg/mL (≈ 7.21 µM) | 
7 | CS(=O)(=O)c1ccc([C@@H](O)[C@@H](CF)NC(=O)C(Cl)Cl)cc1 [Florfenicol] | R | 2 µg/mL (≈ 5.58 µM) | S | S | R | S | R | R | R | 128 µg/mL (≈ 357 µM) | 4 µg/mL (≈ 11.2 µM) | 128 µg/mL (≈ 357 µM) | 2 µg/mL (≈ 5.58 µM) |  |  | 128 µg/mL (≈ 357 µM) | 128 µg/mL (≈ 357 µM) | 128 µg/mL (≈ 357 µM) | 
8 | CNC(C)C1CCC(N)C(OC2C(N)CC(N)C(OC3OCC(C)(O)C(NC)C3O)C2O)O1 (stereo not shown) [Gentamicin] | R | 1 µg/mL (≈ 2.09 µM) | S | S | S | S | S | I | I | > 512 µg/mL | < 0.03 µg/mL | 1 µg/mL (≈ 2.09 µM) | < 0.03 µg/mL | 16 µg/mL (≈ 33.5 µM) | R | 1 µg/mL (≈ 2.09 µM) | 8 µg/mL (≈ 16.8 µM) | 8 µg/mL (≈ 16.8 µM) | 
9 | CO[C@H]1/C=C/O[C@@]2(C)Oc3c(C)c(O)c4c(O)c(c(/C=N/N5CCN(C)CC5)c(O)c4c3C2=O)NC(=O)/C(C)=C\C=C\[C@H](C)[C@H](O)[C@@H](C)[C@@H](O)[C@@H](C)[C@H](OC(C)=O)[C@@H]1C [Rifampicin] | S | 2 µg/mL (≈ 2.43 µM) | S | S | S | S | S | R | S | 4 µg/mL (≈ 4.86 µM) | 1 µg/mL (≈ 1.22 µM) | 4 µg/mL (≈ 4.86 µM) | 2 µg/mL (≈ 2.43 µM) | 8 µg/mL (≈ 9.72 µM) | R | 4 µg/mL (≈ 4.86 µM) | 64 µg/mL (≈ 77.8 µM) | 4 µg/mL (≈ 4.86 µM) | 
